Molecular target: T1, AID^47-CHK1 (A-CHK1) (UniProt P93830+Q7XVM8)
T1 construct: (encoding NP_001052659); 47-amino acid segment that corresponds to amino acids 63-109 of A. thaliana IAA17; expressed in transfected cells; host or cells: CCE mESCs (lentiviral pRAIDRS)
Test: Auxin-dependent depletion of A-CHK1 in mESCs (western blot)
Assay type: cell-based, mouse
Protocol: FIG. 5A is a western blot analysis depicting endogenous CHK1 (*) and AID^47-CHK1 (A-CHK1, **) in four selected clones and in parental non-infected mESCs. […] serves as a loading control. Experiment was repeated three times for clones #1 and #2, and a representative blot is presented. In FIG. 5B, A-CHK1 #2 mESCs were treated with ethanol (“Con”) or auxin (“IAA”) for 1 day. Cells were then treated with the indicated concentrations of aphidicolin (“Aph”). Equal concentrations of DMSO were applied to all conditions. The next day, cells were stained with crystal violet and plates were scanned. […] In FIG. 5C, mESC clones were pretreated with […] aphidicolin for 1 day and were then treated with auxin for the indicated time periods. Left panel: mitotic index was calculated as the percentage of H3^pS10-positive cells with 4N DNA content, measured by flow cytometry. Right panel: dot plots for A-CHK1 #2 mESCs treated with auxin for 0 or 45 minutes. Mitotic cells are gated. FIG. 5D show bright-field microscope images of cells treated as in FIG. 5C. Images show synchronous cell rounding, a feature of late mitotic cells, 2 hours following auxin treatment in aphidicolin-treated A-CHK1 #2 cells. FIG. 5E is a western blot analysis of cells treated as in FIG. 5C. Tyr15 phosphorylation of CDK1 (“CDKlpY^15”) was detected using a phospho-specific antibody. β-Actin serves as a loading control. […] Error bars represent standard deviation of three technical replicates. […]
Cells were lysed in RIPA-B buffer (20 mM Na2HPO4 pH 7.4, 150 mM NaCl and 1% Triton X-100) supplemented with Protease Inhibitor Cocktail (Roche) for 30 minutes on ice with occasional vortexing, followed by 30 minutes centrifugation at 13,000 relative centrifugal force at 4° C. […] Luminescence was detected with X-ray films, which were scanned, or using the Bio-Rad ChemiDoc MP System. […] Quantification of protein level was performed using the ImageJ software (Schneider et al., “NIH Image to ImageJ: 25 Years of Image Analysis,” Nat. Methods 9:671-675 2012), which is hereby incorporated by reference in its entirety). […]

T1 sequence (Q7XVM8 whole entry, the tested form may be a part): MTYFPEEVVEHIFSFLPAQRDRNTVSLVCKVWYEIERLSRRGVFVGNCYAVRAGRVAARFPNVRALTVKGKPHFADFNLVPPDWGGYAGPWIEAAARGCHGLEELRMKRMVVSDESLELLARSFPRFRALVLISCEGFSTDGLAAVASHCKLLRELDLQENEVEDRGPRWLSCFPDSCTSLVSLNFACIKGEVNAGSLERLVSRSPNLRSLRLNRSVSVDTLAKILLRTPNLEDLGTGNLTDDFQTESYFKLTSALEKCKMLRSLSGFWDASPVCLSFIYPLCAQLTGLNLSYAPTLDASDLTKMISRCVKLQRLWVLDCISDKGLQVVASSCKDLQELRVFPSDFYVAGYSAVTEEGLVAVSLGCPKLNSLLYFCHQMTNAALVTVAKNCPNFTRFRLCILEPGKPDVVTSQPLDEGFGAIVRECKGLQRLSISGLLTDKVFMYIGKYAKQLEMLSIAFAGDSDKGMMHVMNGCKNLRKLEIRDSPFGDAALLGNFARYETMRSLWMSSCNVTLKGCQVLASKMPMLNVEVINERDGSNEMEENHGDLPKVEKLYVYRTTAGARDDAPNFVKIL
T1 sequence (P93830 63-109): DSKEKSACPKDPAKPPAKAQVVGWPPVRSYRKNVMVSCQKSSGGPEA

SMILES: O=C(O)Cc1c[nH]c2ccccc12 [auxin, indole-3-acetic acid]
- time of auxin-dependent depletion of CHK1 (aphidicolin-treated mESCs): 20 min
- time for >95% degradation of CHK1 (pRAIDRS system, auxin-dependent protein depletion): 20 to 30 min
- auxin-dependent degradation of A-CHK1 (selected mESC clones, western blot): complete auxin-dependent degradation

Source: US11078496B2, “System for F-box hormone receptor regulated protein expression in mammalian cells” (ICAHN SCHOOL OF MEDICINE AT MOUNT SINAI, priority 2016, dated 2021)
